Measured values from PubChem BioAssay (NCI).
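Method: 48-hour compound exposure of cells in 96-well plates, five concentrations, linear interpolation of endpoints. GI50: concentration for 50% inhibition of growth. TGI: total growth inhibition.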

Tests used:
Assay in all cases: DTP human tumour cell line panel, 48 h
[1] = test system: CAKI-1 renal
[2] = test system: KM12 colon
[3] = test system: M14 melanoma
[4] = test system: SK-OV-3 ovarian
[5] = test system: SF-539 CNS
[6] = test system: ACHN renal
[7] = test system: BT-549 breast
[8] = test system: HCC-2998 colon
[9] = test system: MDA-N

| SMILES | TGI [1] | TGI [2] | TGI [3] | TGI [4] | TGI [5] | TGI [6] | TGI [7] | TGI [8] | TGI [9] | GI50 [1] | GI50 [2] | GI50 [3] | GI50 [5] | GI50 [6] | GI50 [8] |
| --- | --- | --- | --- | --- | --- | --- | --- | --- | --- | --- | --- | --- | --- | --- | --- |
| CN(C)NC1=NS(=O)(=O)c2cc3c(cc2S1)N(N(C)C)C(=O)c1cc2c(cc1N(N(C)C)C3=O)SC(NN(C)C)=NS2(=O)=O | > 10 µM | > 10 µM | > 10 µM | > 10 µM | > 10 µM | > 10 µM | > 10 µM | > 10 µM |  |  |  |  |  |  |  |
| COc1ccc(C[C@H]2NC(=O)/C=C/C[C@@H]([C@H](C)[C@H]3O[C@@H]3c3ccccc3)OC(=O)[C@H](CC(C)C)OC(=O)[C@H](C)CNC2=O)cc1 | > 0.0001 µM | > 0.0001 µM | 6.84e-05 µM | > 0.0001 µM | 4.36e-05 µM | > 0.0001 µM |  | > 0.0001 µM | 2.32e-05 µM |  |  |  |  |  |  |
| CC(C)=NNc1cnnc2ccc([N+](=O)[O-])cc12 | > 100 µM | > 100 µM | > 100 µM | > 100 µM | > 100 µM | > 100 µM | > 100 µM |  | > 100 µM |  |  |  |  |  |  |
| O=C(O)C(F)(F)C(F)(F)C(F)(F)C(F)(F)C(=O)O | > 100 µM | > 100 µM | > 100 µM | > 100 µM |  | > 100 µM | > 100 µM | > 100 µM | > 100 µM |  |  |  |  |  |  |
| CN1[C@@H]2CCCC[C@H]2N(C)P1(=O)C(O)/C=C/c1ccccc1 (some centres undefined) | > 100 µM | > 100 µM | > 100 µM | > 100 µM |  | > 100 µM | > 100 µM | > 100 µM | > 100 µM |  |  |  |  |  |  |
| O=C(Nc1ccccc1)c1cc(S(=O)(=O)Nc2n[nH]c(=O)[nH]2)c(SSc2cc(Cl)c(C(=O)Nc3ccccc3)cc2S(=O)(=O)Nc2n[nH]c(=O)[nH]2)cc1Cl | > 100 µM | > 100 µM | > 100 µM | > 100 µM |  | > 100 µM | > 100 µM | > 100 µM | > 100 µM |  |  |  |  |  |  |
| Cc1ccc(C2(N3CCCC3)OC(C)(C)c3cccc4cccc2c34)cc1 (centres undefined) | 36.5 µM | > 100 µM | 34 µM | 29.3 µM | 32.1 µM | 29.9 µM | 31.3 µM |  | 29.9 µM |  |  |  |  |  |  |
| O=C1c2n[nH]nc2C(=O)c2n[nH]nc21 | > 100 µM | > 100 µM | > 100 µM | > 100 µM | > 100 µM | > 100 µM |  | > 100 µM | > 100 µM |  |  |  |  |  |  |
| CC1(C)CC(=O)C2=C(C1)NC(SCC(=O)O)=C(C#N)C2c1ccc(Br)cc1 (centres undefined) | > 100 µM | > 100 µM | > 100 µM | > 100 µM |  | > 100 µM | > 100 µM | > 100 µM | > 100 µM |  |  |  |  |  |  |
| O=C(Nc1ccc(-n2cc(-c3ccncc3)c(-c3ccc(O)c(Cl)c3)n2)cc1)c1cc(Cl)cc(Cl)c1 | 28 µM | > 32.5 µM | 1.68 µM |  | > 32.5 µM | > 32.5 µM |  | > 32.5 µM |  | 2.64 µM | 1.47 µM | 0.712 µM | 1.01 µM | 1.51 µM | 11.8 µM |
| N#Cc1ccc(/C=N/NC(=O)CSCC(=O)N/N=C/c2ccc(C#N)cc2)cc1 | > 100 µM | > 100 µM | > 100 µM | > 100 µM | > 100 µM | > 100 µM |  | > 100 µM |  |  |  |  |  |  |  |
| Nc1ccccc1/C=C\c1ccccc1 |  | > 100 µM | > 100 µM | > 100 µM | > 100 µM | > 100 µM | > 100 µM |  | > 100 µM |  |  |  |  |  |  |
| CC(=O)c1cc2c(s1)C(=O)c1scc(C(C)=O)c1C2=O | 2.34 µM | 3.39 µM |  | 4.86 µM | 2.44 µM | 0.828 µM | 2.68 µM | 3.58 µM | 0.358 µM |  |  |  |  |  |  |
| Cc1ccc2ccc(=O)oc2c1 | > 100 µM | > 100 µM | > 100 µM |  | > 100 µM | > 100 µM | > 100 µM |  | > 100 µM |  |  |  |  |  |  |
| NC(Cc1ccccc1)=NCC(=O)O | > 100 µM | > 100 µM | > 100 µM | > 100 µM |  | > 100 µM | > 100 µM | > 100 µM | > 100 µM |  |  |  |  |  |  |
| O=c1[nH]c(=S)c2cc3c(=S)[nH]c(=O)n(CCC(c4ccccc4)(c4ccccc4)c4ccccc4)c3nc2n1CCC(c1ccccc1)(c1ccccc1)c1ccccc1 | > 100 µM | > 100 µM | > 100 µM | > 100 µM |  | > 100 µM | > 100 µM | > 100 µM | > 100 µM |  |  |  |  |  |  |
| OC12C3C4CC5C(C4[C@@H]1Br)C2[C@@](O)(c1c(F)c(F)c(F)c(F)c1F)C53 (some centres undefined) | 43.8 µM | 34.5 µM | > 100 µM |  | > 100 µM | > 100 µM | > 100 µM | > 100 µM | > 100 µM |  |  |  |  |  |  |
| CCC(C)NC(=S)N/N=C(\C)c1ccccn1 (centres undefined) | > 100 µM | > 100 µM |  | > 100 µM | 6.89 µM | 10.3 µM | > 100 µM | > 100 µM | > 80 µM |  |  |  |  |  |  |
| O=C(O)CCC(C(=O)O)N1C(=O)c2ccccc2C1=O (centres undefined) | > 100 µM | > 100 µM | > 100 µM | > 100 µM |  | > 100 µM | > 100 µM | > 100 µM | > 100 µM |  |  |  |  |  |  |
| Cc1c(C)c2c(c(N)c1C#N)C(=O)N(OS(=O)(=O)c1ccccc1)C2=O | 51 µM | > 100 µM | 41.6 µM |  | 34.2 µM | 33.1 µM | 39.7 µM | > 100 µM | 80.8 µM |  |  |  |  |  |  |
| N#CC(c1nc2ccccc2s1)c1nc(Cl)ncc1Br (centres undefined) | > 100 µM | > 100 µM | > 100 µM | > 100 µM | 82 µM | > 100 µM | 80.5 µM |  | > 100 µM |  |  |  |  |  |  |
| O=C1C=C(N2CCCC2)C(=O)c2c(O)ccc(O)c21 |  | > 10 µM | > 10 µM | > 10 µM | > 10 µM | > 10 µM | > 10 µM | > 10 µM | > 10 µM |  |  |  |  |  |  |
| CC(=O)N1CC(C)(C)c2c1cc(C)c(O)c2C |  | > 100 µM | > 100 µM | > 100 µM | > 100 µM | > 100 µM |  | > 100 µM | > 100 µM |  |  |  |  |  |  |
| Cc1c(NC(=S)N/N=C\C(=N/NC(=S)Nc2c(C)n(C)n(-c3ccccc3)c2=O)c2ccccc2)c(=O)n(-c2ccccc2)n1C | > 100 µM | > 100 µM | > 100 µM | > 100 µM | > 100 µM | > 100 µM | > 100 µM | > 100 µM |  |  |  |  |  |  |  |
| c1nncn1C12C3C4C5C3C1C5C42 (centres undefined) |  | > 100 µM |  | > 100 µM | > 100 µM | > 100 µM | > 100 µM | > 100 µM | > 100 µM |  |  |  |  |  |  |
